# Reference: US6913895B1, “Methods for assaying transglycosylase reactions, and for identifying inhibitors thereof” (Advanced Medicine East, Inc., priority 1999, dated 2005)
# Entries after “also recorded” stand apart in the source; their conditions may differ. Like-named read-outs stand apart in the source and are kept apart here. Marks after values point to notes of the source that are not given here.
# How the values were obtained:
# transglycosylase [1] = assay: Transglycosylase assay: peptidoglycan formation from lipid II accumulated in situ in bacterial membranes; assay type: biochemical, E. coli; settings: for inhibition of peptidoglycan formation: inhibitor added after formation of lipid II, Triton X-100 removed, 2 hours incubation, paper chromatography
# Protocol: Reactions were performed in the following buffer: 50 mM Tris (pH=8.0), 42 mM MgAc, 208 mM KCl, and 0.1% Triton X-100®. Each reaction was performed in a 50 ul reaction volume, containing 25 μg French Pressed bacterial membranes, 0.5 nmoles biotinylated UDP-MurNAc-pentapeptide 10% DMSO final concentration (added in conjunction with inhibitor), and 0.5 uM 14C-GlcNAc (≈20,000 CPM). All components except 14C-GlcNAc were pre-incubated together for 10 min at room temperature. The reactions were incubated an additional 1 hour after addition of ^14C-GlcNAc.
# To make the reaction volume more manageable, the Triton was removed with the addition of Detergent-Out resin (Geno-Technology, St. Louis, Mo.). After binding up the inhibiting detergent, the reaction was further incubated for 2 hours to allow for transglycosylation to proceed.
# The above-described methods of the invention were used to analyze the activity of three inhibitors. The assay included separate samples of tunicamycin, moenomycin, or bacitracin in various concentrations. These inhibitors were added to their respective samples after formation of lipid II, with the subsequent removal of the transglycosylation blocker Triton X-100®. After 2 hours incubation, aliquots of the solubilized products were analyzed by ascending paper chromatography. The amount of lipid II converted into peptidoglycan is represented by the amount of radioactivity measured in CPM remaining at the origin for each reaction.
# Compounds TS0517 (chlorobiphenyl-vancomycin), TS0518 (chlorobiphenyl-desleucyl-vancomycin), TS0523, TS1017, and TS30663 were all assayed using the above-described assay, in which the inhibitors were added to their respective samples after formation of lipid II, with the subsequent removal of Triton X-100®. After 2 hours incubation, aliquots of the solubilized products were analyzed by ascending paper chromatography.
# lipid II formation = assay: Lipid II formation assay in bacterial membranes; assay type: biochemical, E. coli; settings: for inhibition of lipid II formation: inhibitors added with labeled UDP-GlcNAc and UDP-MurNAc-tetrapeptide (data not shown)
# E. faecium CL4931 (VanA) = assay type: cell-based
# E. faecium 49624 = assay type: cell-based
# [2] = system: E. faecalis CL4877 (VanB); assay type: cell-based
# S. aureus 29213 = assay type: cell-based
# E. faecalis 29212 = assay type: cell-based
# transglycosylase [3] = assay: Transglycosylase assay: peptidoglycan formation from lipid II accumulated in situ in bacterial membranes; assay type: biochemical, E. coli; settings: UDP-MurNAc-tetrapeptide substrate, inhibitors added after Triton X-100 removal, 2 hour incubation
# peptidoglycan synthesis = settings: at 100 μg/ml, A. viridens membranes; cited from earlier work
# [4] = E. faecium CL4931 (VanA), vancomycin resistant
# [5] = E. faecium 49624, vancomycin-sensitive
# [6] = E. faecalis CL4877 (VanB), vancomycin resistant
# [7] = S. aureus 29213, vancomycin-sensitive
# [8] = E. faecalis 29212, vancomycin-sensitive
compound,measurement,setting,value
"C[C@@H]1O[C@@H](O[C@H]2[C@H](Oc3c4cc5cc3Oc3ccc(cc3Cl)[C@@H](O)[C@@H](N)C(=O)N[C@@H](CC(N)=O)C(=O)N[C@H]5C(=O)NC3C(=O)NC(C(=O)N[C@H](C(=O)O)c5cc(O)cc(O)c5-c5cc3ccc5O)[C@H](O)c3ccc(c(Cl)c3)O4)O[C@H](CO)[C@@H](O)[C@@H]2O)C[C@](C)(NCc2ccc(-c3ccc(Cl)cc3)cc2)[C@@H]1O (mixture of isomers) [CBP-dl-vancomycin, chlorobiphenyl-desleucyl-vancomycin]",inhibition of peptidoglycan formation,transglycosylase [1],showed inhibition of peptidoglycan formation
same,inhibition of lipid II formation,lipid II formation,no inhibition of lipid II formation
same,MIC,E. faecium CL4931 (VanA); [4],12.5 µg/mL
same,MIC,E. faecium 49624; [5],1.56 µg/mL
same,MIC,[2]; [6],25 µg/mL
same,MIC,S. aureus 29213; [7],3.12 µg/mL
same,MIC,E. faecalis 29212; [8],3.12 µg/mL
same,inhibition of peptidoglycan synthesis,transglycosylase [3],far more effective
"CN[C@H](CC(C)C)C(=O)N[C@H]1C(=O)N[C@@H](CC(N)=O)C(=O)N[C@H]2C(=O)N[C@H]3C(=O)N[C@H](C(=O)N[C@H](C(=O)O)c4cc(O)cc(O)c4-c4cc3ccc4O)[C@H](O)c3ccc(c(Cl)c3)Oc3cc2cc(c3O[C@@H]2O[C@H](CO)[C@@H](O)[C@H](O)[C@H]2O[C@H]2C[C@](C)(NCc3ccc(-c4ccc(Cl)cc4)cc3)[C@H](O)[C@H](C)O2)Oc2ccc(cc2Cl)[C@H]1O [CBP-vancomycin, chlorobiphenyl-vancomycin]",inhibition of peptidoglycan formation,transglycosylase [1],showed inhibition of peptidoglycan formation
same,inhibition of lipid II formation,lipid II formation,no inhibition of lipid II formation
same,MIC,E. faecium CL4931 (VanA); [4],12.5 µg/mL
same,MIC,E. faecium 49624; [5],0.062 µg/mL
same,MIC,[2]; [6],12.5 µg/mL
same,MIC,S. aureus 29213; [7],0.25 µg/mL
same,MIC,E. faecalis 29212; [8],0.25 µg/mL
same,inhibition of peptidoglycan synthesis,transglycosylase [3],far more effective
"CN[C@H](CC(C)C)C(=O)N[C@H]1C(=O)N[C@@H](CC(N)=O)C(=O)N[C@H]2C(=O)N[C@H]3C(=O)N[C@H](C(=O)N[C@H](C(=O)O)c4cc(O)cc(O)c4-c4cc3ccc4O)[C@H](O)c3ccc(c(Cl)c3)Oc3cc2cc(c3O[C@@H]2O[C@H](CO)[C@@H](O)[C@H](O)[C@H]2O[C@H]2C[C@](C)(N)[C@H](O)[C@H](C)O2)Oc2ccc(cc2Cl)[C@H]1O [Vancomycin, vancomycin]",inhibition of lipid II formation in vitro,lipid II formation; substrate with D-ala-D-ala dipeptide moiety,capable of inhibiting the formation of lipid II in vitro
same,MIC,E. faecium CL4931 (VanA); Enterococcus faecium,1250 µg/mL
same,MIC,"E. faecium 49624; Enterococcus faecium, 49624",1.25 µg/mL
same,MIC,[2]; Enterococcus faecalis,1250 µg/mL
same,MIC,"S. aureus 29213; Staphylococcus aureus, 29213",1.25 µg/mL
same,MIC,"E. faecalis 29212; Enterococcus faecalis, 29212",3.12 µg/mL
same,inhibition of peptidoglycan synthesis,transglycosylase [3],only minimal inhibition
moenomycin,potency in E. coli system relative to that measured in Allen et al. using A. viridens,transglycosylase [1]; UDP-MurNAc-pentapeptide or UDP-MurNAc-tetrapeptide,4 orders of magnitude
same,"inhibition of peptidoglycan synthesis, UDP-MurNAc-pentapeptide vs UDP-MurNAc-tetrapeptide",transglycosylase [1]; comparison of the two precursor substrates,equipotent inhibition
same,inhibition of peptidoglycan formation,transglycosylase [1],sensitive
same,IC50 / effect compared with assay without transglycosylation blocker,transglycosylase [1]; with vs without Triton X-100 blocker,identical IC50 values; also recorded: substantially the same
same,MIC,E. faecium CL4931 (VanA); [4],0.25 µg/mL
same,MIC,E. faecium 49624; [5],>200^c μg/ml
same,MIC,[2]; [6],0.13 µg/mL
same,MIC,S. aureus 29213; [7],0.05 µg/mL
same,MIC,E. faecalis 29212; [8],0.078 µg/mL
same,inhibition of peptidoglycan synthesis,peptidoglycan synthesis,< 35%
tunicamycin,inhibition of peptidoglycan formation,transglycosylase [1],no measurable effect
same,inhibition of peptidoglycan formation,transglycosylase [1]; listed as tunicamycin,had no effect
